Laboratory results: patent US6544551B1, “Solid pharmaceutical compositions containing hexedecylphosphocholine (miltefosine) for oral administration in the treatment of leishmaniasis” (priority 1998, dated 2003)

How the values were obtained:
[1] = test system: visceral leishmaniasis (VL); assay: Clinical study of oral miltefosine capsules in human visceral leishmaniasis: efficacy; type: in vivo
Experimental: (§1) Miltefosine (MILT, hexadecylphosphocholine, ASTA Medica), an antineoplastic alkylphospholipid, is active in experimental visceral leishmaniasis (VL). To test oral MILT in human VL, 30 male Indian patients from Bihar (age>14 years; 18 of the 30 were antimony (Sb) failures) with splenic aspirate-positive VL were treated in 6 groups of 5 patients each (Groups A-F) for 28 days with escalating doses by oral administration of capsules according to example 1: (A) 50 mg once qod (qod=[…]), (B) 50 mg BID god (BID=twice per day), and then daily using 50 mg (C) BID (100 mg/d), (D) TID (150 mg/d), (E) QID (200 mg/d), and (F) 5×per day (250 mg/d).

[2] = Clinical study of oral miltefosine capsules in human visceral leishmaniasis: tolerability and safety; type: in vivo
Experimental: as §1

[3] = Hygroscopicity (incorporation of water molecules); type: physicochemical
[4] = test system: experimental visceral leishmaniasis (VL); details: in vivo; cited from earlier work
[5] = Day 14 results in 30 patients, Groups A-F together, oral
[6] = Group A: 50 mg once qod, 28 days, oral
[7] = Group B: 50 mg BID qod, 28 days, oral
[8] = Group D: 50 mg TID (150 mg/d), 28 days, oral

**Q.** For `CCCCCCCCCCCCCCCCOP(=O)([O-])OCC[N+](C)(C)C` [Miltefosine, hexadecylphosphocholine], which “patients afebrile by day 7” value ([1]; 30 male Indian VL patients, Groups A-F together, oral capsules according to example 1, 28 days, day 7) is on record?
**A.** 16 patients

**Q.** What about the “all 3 responses (afebrile, decreased spleen size, negative aspirate) = apparent cures, day 14” value ([1]; Day 14, Groups A-F together, oral) of the same molecule?
**A.** 21 of 30

**Q.** What about the “afebrile, day 14” value [1, 5] of the same molecule?
**A.** 25 patients

**Q.** What about the “decreased spleen size, day 14” value [1, 5] of the same molecule?
**A.** 25 patients

**Q.** And the “negative spleenic aspirates (apparent parasitologic cure), day 14” value [1, 5]?
**A.** 28 patients

**Q.** And the “apparent cures on day 28 (percent of patients)” value ([1]; Day 28, 29 patients)?
**A.** 100%

**Q.** And the “apparent cures on day 28” value ([1]; Day 28, Groups A-F together, including 4 patients with less than 10 days of therapy)?
**A.** 29 of 29

**Q.** What about the “cure (no relapse, parasite-free bone marrow aspirate) within 6 months, Group A” value [1, 6] of the same molecule?
**A.** 2/5

**Q.** What about the “relapsed within 6 months, Group A” value [1, 6] of the same molecule?
**A.** 3/5

**Q.** And the “cure (no relapse, parasite-free bone marrow aspirate) within 6 months, Group B” value [1, 7]?
**A.** 2/5

**Q.** What about the “relapsed within 6 months, Group B” value [1, 7] of the same molecule?
**A.** 3/5

**Q.** What about the “cure (no relapse, parasite-free bone marrow aspirate) within 6 months, Group C” value ([1]; Group C: 50 mg BID (100 mg/d), 28 days, oral) of the same molecule?
**A.** 5/5

**Q.** And the “cure (no relapse, parasite-free bone marrow aspirate) within 6 months, Group D” value [1, 8]?
**A.** 4/5

**Q.** And the “relapsed within 6 months, Group D” value [1, 8]?
**A.** 1/5

**Q.** And the “cure (no relapse, parasite-free bone marrow aspirate) within 6 months, Group E” value ([1]; Group E: 50 mg QID (200 mg/d), 28 days, oral)?
**A.** 5/5

**Q.** And the “apparent cures relapsed within 6 months” value ([1]; all groups, within 6 months)?
**A.** 7 of 29

**Q.** What about the “apparent cure (no relapse, parasite-free bone marrow aspirate) within 6 months” value ([1]; all groups, within 6 months, 1 patient still in follow up) of the same molecule?
**A.** 21 of 26

**Q.** And the “patients with definite cure who had failed prior therapy with antimony” value ([1]; of the first 21 patients with definite cure)?
**A.** 14 patients

**Q.** And the patients died ([2]; Group F (250 mg/d), died on day 21, drug stopped on day 19, severe vomiting and diarrhea, dehydration, renal failure)?
**A.** 1 patient

**Q.** And the hematologic toxicity ([2]; human, in vivo)?
**A.** no hematologic toxicity

**Q.** What about the “mild vomiting or diarrhea lasting 3-7 days” value ([2]; human, in vivo) of the same molecule?
**A.** most patients

**Q.** And the “patients removed because of vomiting, Group F” value ([2]; male, human, in vivo, 28 days)?
**A.** 3

**Q.** What about the “maximum tolerated daily dose” value ([2]; oral, human VL patients, 28 days) of the same molecule?
**A.** 200 mg/day

**Q.** And the “increase in weight by incorporation of water molecules” value [3]?
**A.** up to 30%

**Q.** What about the “activity in experimental visceral leishmaniasis” value [4] of the same molecule?
**A.** active
